# Structures can show the parent of a compound that is named as a salt. Where two headings read alike, the source gives them in different places.
# Tests used:
# [1] = molecular target: rhCatC (Homo sapiens (Human), UniProt P53634); assay: In vitro enzyme activity experiment of rhCatC (AMC fluorescence assay); assay type: biochemical; conditions: rhCatC enzyme, substrate H-Gly-Arg-AMC; read-out: Biological activity IC50
# Experimental: The in vitro inhibitory effect of compounds and positive control on rhCatC enzyme activity was evaluated by AMC fluorescence assay. rhCatC can catalyze the reaction of substrate peptide H-Gly-Arg-AMC, and release AMC to generate fluorescence. […] The compound was diluted with DMSO to a 384-well echo plate at a concentration of 100× of the highest concentration at the beginning of the experiment. 0.2 μL of the diluted compound was pipetted to a black-bottomed 384-well reaction plate for later use. The negative control well was DMSO. • 2) Activation of rhCatC: RhCatC and rhCatL were added to the activation buffer to obtain a final concentration of rhCatC of 100 μg/mL and a final concentration of rhCatL of 20 μg/mL, and incubated at room temperature for 1 hour. • 3) Enzyme activity reaction: Activated rhCatC was diluted to 0.4 μg/mL with the reaction buffer. The solution was added to the black-bottom 384-well reaction plate ([…]). 10 μL of the buffer was added for the vehicle control group. The plate containing compounds in its wells was incubated at room temperature for 30 minutes.
# The RLU data was read, the inhibition rate was calculated, and the IC50 value was calculated according to the fitting curve of concentration and inhibition rate.
# [2] = molecular target: CatC (Homo sapiens (Human), UniProt P53634); assay: In vitro CatC cell activity experiment in U937 cell line; assay type: cell-based
# Experimental: The U937 cell line was resuscitated and passed for about two generations, and the cell line with good growth status was selected. The cell suspension was transferred into a centrifuge tube, and centrifuged at 800 to 1000 rpm for 3 to 5 minutes. The supernatant was discarded. An appropriate volume of culture medium was added to the centrifuge tube, which was gently pipetted to resuspend the cells evenly. The cells were counted using a Vi-Cell XR cell counter. The cell suspension was adjusted to an appropriate concentration. The cell suspension was added into a 384-well plate ([…]). The compound was formulated into a 10 mM solution with DMSO. The compound was diluted with DMSO to obtain a 1 mM solution, and a semi-logarithmi dilution was carried out by HPD300 with DMSO to obtain 10 concentrations. Gly-Phe-AFC was formulated into a 35 mM solution with DMSO and divided. […] After adding the compounds and incubating for 1 hour in an incubator, substrate-AFC was added (12.5 μL was added to the plate). The plate was incubated for 30 minutes and read. […] XLFit was used to draw the drug efficacy inhibition rate curve and calculate the IC50 value. 4-parameter model [fit=(A+((B−A)/(1+((C/x)^D))))] was used.
# [3] = U937 cells, CatC cell activity, read-out: Biological activity IC50
# Chain of rhCatC (P53634 25-134): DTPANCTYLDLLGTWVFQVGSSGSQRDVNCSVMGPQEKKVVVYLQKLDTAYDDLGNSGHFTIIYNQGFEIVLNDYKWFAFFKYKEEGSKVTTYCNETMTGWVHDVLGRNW
# Chain of rhCatC (P53634 231-394): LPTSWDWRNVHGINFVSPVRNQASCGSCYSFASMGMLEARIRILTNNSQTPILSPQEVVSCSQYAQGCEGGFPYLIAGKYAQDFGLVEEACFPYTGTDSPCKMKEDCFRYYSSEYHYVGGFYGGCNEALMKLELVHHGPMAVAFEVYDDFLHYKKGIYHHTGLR
# Chain of rhCatC (P53634 395-463): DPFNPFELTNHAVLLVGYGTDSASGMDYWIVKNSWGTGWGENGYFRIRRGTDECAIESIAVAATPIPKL
SMILES,IC50 [1],IC50 [2],"IC50 [2, 3]"
"N#Cc1ccc2c(c1)COc1cc(CC(C#N)NC(=O)C3(N)CCOCC3)ccc1-2 (stereo not shown) [Compound 25, 4-Amino-N-(1-cyano-2-(8-cyano-6H-benzo[c]chromen-3-yl)ethyl)tetrahydro-2H-pyran-4-carboxamide]",3.1 nM,5.52 nM,–
"N#Cc1ccc2c(c1)COc1cc(CC(C#N)NC(=O)[C@@H]3CNCCCO3)ccc1-2 (stereo partly drawn) [Compound 13, (2S)—N-(1-Cyano-2-(8-cyano-6H-benzo[c]chromen-3-yl)ethyl)-1,4-oxazepane-2-carboxamide]",37 nM,87.6 nM,–
"N#Cc1cc2c(cn1)-c1cc(F)c(CC(C#N)NC(=O)[C@@H]3CNCCCO3)cc1OC2 (stereo partly drawn) [Compound 18, (2S)—N-(1-Cyano-2-(3-cyano-9-fluoro-5H-chromeno[4,3-c]pyridin-8-yl)ethyl)-1,4-oxazepane-2-carboxamide]",49 nM,29.5 nM,–
"N#CC(Cc1cc2c(cc1F)-c1ccc(F)cc1CO2)NC(=O)[C@@H]1CNCCCO1 (stereo partly drawn) [Compound 12, (2S)—N-(1-Cyano-2-(2,8-difluoro-6H-benzo[c]chromen-3-yl)ethyl)-1,4-oxazepane-2-carboxamide]",16 nM,23 nM,–
"N#CC(Cc1ccc2c(c1)OCc1cc(F)ccc1-2)NC(=O)C1(N)CCOCC1 (stereo not shown) [Compound 22, 4-Amino-N-(1-cyano-2-(8-fluoro-6H-benzo[c]chromen-3-yl)ethyl)tetrahydro-2H-pyran-4-carboxamide formate]",3.2 nM,5.5 nM,–
"N#CC(Cc1ccc2c(c1)OCc1ccc(C3COC3)cc1-2)NC(=O)[C@@H]1CNCCCO1 (stereo partly drawn) [Compound 28, (2S)—N-(1-Cyano-2-(9-(oxetan-3-yl)-6H-benzo[c]chromen-3-yl)ethyl)-1,4-oxazepane-2-carboxamide]",–,50.1 nM,–
"CN1Cc2cc(C#N)ccc2-c2cc(F)c(C[C@@H](C#N)NC(=O)[C@@H]3CNCCCO3)cc2C1=O [Compound 41, (S)—N—((S)-1-Cyano-2-(9-cyano-2-fluoro-6-methyl-5-oxo-6,7-dihydro-5H-dibenzo[c,e]azepin-3-yl)ethyl)-1,4-oxazepane-2-carboxamide]",30.5 nM,–,117 nM
"N#C[C@H](Cc1ccc2c(c1)OCc1cc(F)c(F)cc1-2)NC(=O)[C@@H]1CNCCCO1 [Compound 16, (S)—N—((S)-1-Cyano-2-(8,9-difluoro-6H-benzo[c]chromen-3-yl)ethyl)-1,4-oxazepane-2-carboxamide]",91 nM,186 nM,–
"N#CC(Cc1cc2c(cc1F)-c1ccc(F)cc1CO2)NC(=O)C1(N)CCOCC1 (stereo not shown) [Compound 24, 4-Amino-N-(1-cyano-2-(2,8-difluoro-6H-benzo[c]chromen-3-yl)ethyl)tetrahydro-2H-pyran-4-carboxamide]",2.7 nM,4.3 nM,–
"CS(=O)(=O)c1ccc2c(c1)COc1cc(CC(C#N)NC(=O)[C@@H]3CNCCCO3)c(F)cc1-2 (stereo partly drawn) [Compound 29, (2S)—N-(1-Cyano-2-(2-fluoro-8-(methylsulfonyl)-6H-benzo[c]chromen-3-yl)ethyl)-1,4-oxazepane-2-carboxamide]",17.1 nM,36.8 nM,–
"N#CC(Cc1ccc2c(c1)COCc1cc(F)ccc1-2)NC(=O)C1(N)CCOCC1 (stereo not shown) [Compound 37, 4-Amino-N-(1-cyano-2-(9-fluoro-5,7-dihydrodibenzo[c,e]oxepin-3-yl)ethyl)tetrahydro-2H-pyran-4-carboxamide]",14 nM,–,8.6 nM
"N#C[C@H](Cc1ccc2c(c1)CC(=O)N(c1ccc(F)cc1)C2)NC(=O)C1(N)CCCCC1 [Compound 58, (S)-1-Amino-N-(1-cyano-2-(2-(4-fluorophenyl)-3-oxo-1,2,3,4-tetrahydroisoquinolin-6-yl)ethyl)cyclohexane-1-carboxamide]",–,–,99.3 nM
"N#C[C@H](Cc1cc2c(cc1F)-c1ccc(F)cc1CO2)NC(=O)[C@@H]1CNCCCO1 [Compound 20, (S)—N—((S)-1-Cyano-2-(2,8-difluoro-6H-benzo[c]chromen-3-yl)ethyl)-1,4-oxazepane-2-carboxamide]",11 nM,7.8 nM,–
"N#CC(Cc1ccc2c(c1)CCc1ccccc1-2)NC(=O)C1(N)CCOCC1 (stereo not shown) [Compound 7, 4-Amino-N-(1-cyano-2-(9,10-dihydrophenanthren-2-yl)ethyl)tetrahydro-2H-pyran-4-carboxamide]",6.8 nM,–,10.2 nM
"N#Cc1ccc2c(c1)COc1cc(C[C@@H](C#N)NC(=O)[C@@H]3CNCCCO3)c(Cl)cc1-2 [Compound 21, (S)—N—((S)-2-(2-Chloro-8-cyano-6H-benzo[c]chromen-3-yl)-1-cyanoethyl)-1,4-oxazepane-2-carboxamide]",–,24.6 nM,–
"N#Cc1ccc2c(c1)COc1cc(C[C@@H](C#N)NC(=O)[C@@H]3C[C@@H]4CCC[C@@H]4N3)c(F)cc1-2 [Compound 26, (2S,3aS,6aS)—N—((S)-1-Cyano-2-(8-cyano-2-fluoro-6H-benzo[c]chromen-3-yl)ethyl)octahydrocyclopenta[b]pyrrole-2-carboxamide]",8.9 nM,–,6.7 nM
"N#C[C@H](Cc1ccc2c(c1)OCc1cc(F)c(F)cc1-2)NC(=O)C1(N)CCOCC1 [Compound 17, (S)-4-Amino-N-(1-cyano-2-(8,9-difluoro-6H-benzo[c]chromen-3-yl)ethyl)tetrahydro-2H-pyran-4-carboxamide]",5.7 nM,6.2 nM,–
"CS(=O)(=O)c1ccc2c(c1)COc1cc(C[C@@H](C#N)NC(=O)[C@@H]3CNCCCO3)c(F)cc1-2 [Compound 30, (S)—N—((S)-1-Cyano-2-(2-fluoro-8-(methylsulfonyl)-6H-benzo[c]chromen-3-yl)ethyl)-1,4-oxazepane-2-carboxamide]",10 nM,9.6 nM,–
"N#Cc1ccc2c(c1)-c1cc(F)c(CC(C#N)NC(=O)[C@@H]3CNCCCO3)cc1OC2 (stereo partly drawn) [Compound 31, (2S)—N-(1-Cyano-2-(9-cyano-2-fluoro-6H-benzo[c]chromen-3-yl)ethyl)-1,4-oxazepane-2-carboxamide]",–,38.4 nM,–
"CN1Cc2cc(F)ccc2-c2ccc(C[C@@H](C#N)NC(=O)C3(N)CCOCC3)cc2C1=O [Compound 40, (S)-4-Amino-N-(1-cyano-2-(9-fluoro-6-methyl-5-oxo-6,7-dihydro-5H-dibenzo[c,e]azepin-3-yl)ethyl)tetrahydro-2H-pyran-4-carboxamide]",3.7 nM,–,10.3 nM
"N#CC(Cc1ccc2c(c1)OCCc1cc(F)ccc1-2)NC(=O)C1(N)CCOCC1 (stereo not shown) [Compound 36, 4-Amino-N-(1-cyano-2-(9-fluoro-6,7-dihydrodibenzo[b,d]oxepin-3-yl)ethyl)tetrahydro-2H-pyran-4-carboxamide]",7.1 nM,–,23.7 nM
"N#CC(Cc1cc2c(cc1F)-c1ccc(S(=O)(=O)N3CCC3)cc1CO2)NC(=O)[C@@H]1CNCCCO1 (stereo partly drawn) [Compound 35, (2S)—N-(2-(8-(Azetidin-1-ylsulfonyl)-2-fluoro-6H-benzo[c]chromen-3-yl)-1-cyanoethyl)-1,4-oxazepane-2-carboxamide]",15 nM,–,37.9 nM
"N#C[C@H](Cc1ccc2c(c1)CCc1ccccc1-2)NC(=O)[C@@H]1CNCCCO1 [Compound 8, (S)—N—((S)-1-Cyano-2-(9,10-dihydrophenanthren-2-yl)ethyl)-1,4-oxazepane-2-carboxamide]",60 nM,–,220 nM
"N#C[C@H](Cc1ccc2c(c1)CCN(C(=O)c1ccc(F)cc1)C2)NC(=O)C1(N)CCOCC1 [Compound 56, (S)-4-Amino-N-(1-cyano-2-(2-(4-fluorobenzoyl)-1,2,3,4-tetrahydroisoquinolin-6-yl)ethyl)tetrahydro-2H-pyran-4-carboxamide]",37 nM,–,–
